Measured values taken from US7074816B2, “1 2 4-triazole compound” (Fuji Yakuhin Co., Ltd., priority 2002, dated 2006).

Target: T1, xanthine oxidase (Rattus norvegicus, UniProt P22985)
T1 construct: administered orally to seven-week-old male Wistar rats (4 rats per group); from tissue; host or cells: whole animal (male Wistar rats); the enzyme is endogenous and was not isolated
Test: Effect of lowering serum uric acid level in vivo (oral, Wistar rats)
Details: male Wistar rats, 0.3 mg/5 ml/kg in 0.5% methylcellulose, blood collected 6 hours after administration
Method: Method for Evaluating the Effect of Lowering Serum Uric Acid Level In Vivo
Each of the test compounds was suspended in a 0.5% methylcellulose (MC) aqueous solution and administered orally to seven-week-old male Wistar rats (4 rats per group) compulsorily through a feeding tube at a dose of 0.3 mg/5 ml/kg (1 mg/5 ml/kg for Example 17 and Compound 44 of J. Medicinal Chemistry, (1975) as a control). The blood was collected from the orbital sinus at 6 hours after administration of the test compound. Each blood sample was allowed to clot for one hour and then centrifuged at 2000×g for 10 minutes to obtain serum. The uric acid level in the serum was determined using a kit (Wako Pure Chemicals Industries, Ltd.; phosphotungstic acid method) and a reduction rate of serum uric acid level was calculated by the following formula:
Reduction rate of serum uric acid level=(1-Average serum uric acid level in the group receiving a test compound/Average serum uric acid level in the group receiving MC)×100

T1 sequence (P22985 whole entry): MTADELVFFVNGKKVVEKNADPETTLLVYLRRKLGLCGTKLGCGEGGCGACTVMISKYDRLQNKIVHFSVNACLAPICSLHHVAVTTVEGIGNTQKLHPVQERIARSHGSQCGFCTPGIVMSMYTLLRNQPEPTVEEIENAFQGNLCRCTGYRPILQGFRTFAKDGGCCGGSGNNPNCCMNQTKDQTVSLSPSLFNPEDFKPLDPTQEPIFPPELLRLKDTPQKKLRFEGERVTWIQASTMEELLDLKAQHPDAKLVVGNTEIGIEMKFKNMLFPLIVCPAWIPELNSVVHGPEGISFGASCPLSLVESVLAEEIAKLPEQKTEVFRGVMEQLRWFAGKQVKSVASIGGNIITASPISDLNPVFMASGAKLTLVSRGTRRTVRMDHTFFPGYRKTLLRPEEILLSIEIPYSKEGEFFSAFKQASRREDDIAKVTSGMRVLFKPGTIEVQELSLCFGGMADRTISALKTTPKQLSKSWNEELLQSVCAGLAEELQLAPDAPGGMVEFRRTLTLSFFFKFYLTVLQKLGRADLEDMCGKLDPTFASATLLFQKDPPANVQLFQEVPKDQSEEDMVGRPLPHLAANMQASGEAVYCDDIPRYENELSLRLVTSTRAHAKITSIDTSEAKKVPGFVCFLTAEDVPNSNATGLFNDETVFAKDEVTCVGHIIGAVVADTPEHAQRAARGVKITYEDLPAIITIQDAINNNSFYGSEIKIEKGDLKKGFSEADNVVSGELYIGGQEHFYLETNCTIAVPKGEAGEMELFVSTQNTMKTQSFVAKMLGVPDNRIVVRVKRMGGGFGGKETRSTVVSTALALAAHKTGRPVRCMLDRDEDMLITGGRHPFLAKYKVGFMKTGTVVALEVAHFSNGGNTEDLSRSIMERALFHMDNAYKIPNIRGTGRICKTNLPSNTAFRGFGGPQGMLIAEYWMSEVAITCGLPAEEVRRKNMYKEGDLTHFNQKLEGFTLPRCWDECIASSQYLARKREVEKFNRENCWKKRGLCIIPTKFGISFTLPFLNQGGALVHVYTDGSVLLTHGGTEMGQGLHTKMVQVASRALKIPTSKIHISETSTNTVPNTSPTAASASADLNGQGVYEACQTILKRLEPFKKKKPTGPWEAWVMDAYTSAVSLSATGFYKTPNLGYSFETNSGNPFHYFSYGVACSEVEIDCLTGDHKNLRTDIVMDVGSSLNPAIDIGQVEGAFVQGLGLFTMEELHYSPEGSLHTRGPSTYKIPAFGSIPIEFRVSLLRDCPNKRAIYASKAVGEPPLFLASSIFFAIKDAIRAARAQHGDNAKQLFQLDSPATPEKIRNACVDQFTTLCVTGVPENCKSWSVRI

Row | Reduction rate of serum uric acid level [%] | SMILES
1 | 33.6 | N#Cc1cc(-c2n[nH]c(-c3ccnc(Cl)c3)n2)ccn1 [Example 37, 3-(2-cyano-4-pyridyl)-5-(2-chloro-4-pyridyl)-1,2,4-triazole]
2 | 32.6 | Cc1cc(-c2n[nH]c(-c3ccc(OCC4CC4)c(C#N)c3)n2)ccn1 [Example 22, 3-(2-methyl-4-pyridyl)-5-(3-cyano-4-cyclopropylmethoxyphenyl)-1,2,4-triazole]
3 | 43.9 | Cc1cc(-c2nc(-c3ccc(N4CCN(C)CC4)c([N+](=O)[O-])c3)n[nH]2)ccn1 [Example 4, 3-[4-(4-methyl-1-piperazino)-3-nitrophenyl]-5-(2-methyl-4-pyridyl)-1,2,4-triazole]
4 | 35.7 | CSCOc1ccc(-c2n[nH]c(-c3ccnc(C)c3)n2)cc1[N+](=O)[O-] [Example 9, 5-(2-methyl-4-pyridyl)-3-(4-methylthiomethyloxy-3-nitrophenyl)-1,2,4-triazole]
5 | 51.1 | N#Cc1cc(-c2nc(-c3ccncc3)n[nH]2)ccn1 [Example 12, 5-(2-cyano-4-pyridyl)-3-(4-pyridyl)-1,2,4-triazole]
6 | 39.9 | Cc1cc(-c2nc(-c3ccc(NCC(C)C)c([N+](=O)[O-])c3)n[nH]2)ccn1 [Example 5, 3-(4-isobutylamino-3-nitrophenyl)-5-(2-methyl-4-pyridyl)-1,2,4-triazole]
7 | 35.3 | C#CCOc1ccc(-c2nc(-c3ccnc(C)c3)n[nH]2)cc1C#N [Example 28, 3-(2-methyl-4-pyridyl)-5-(3-cyano-4-propargyloxyphenyl)-1,2,4-triazole]
8 | 36.5 | COCCOc1ccc(-c2nc(-c3ccnc(C)c3)n[nH]2)cc1C#N [Example 31, 3-(2-methyl-4-pyridyl)-5-(3-cyano-4-methoxyethoxyphenyl)-1,2,4-triazole]
9 | 32.5 | Cc1cc(-c2nc(-c3ccc(OCSc4ccccc4)c([N+](=O)[O-])c3)n[nH]2)ccn1 [Example 8, 5-(2-methyl-4-pyridyl)-3-(3-nitro-4-phenylthiomethyloxyphenyl)-1,2,4-triazole]
10 | 52.0 | COCCOCCOc1ccc(-c2nc(-c3ccnc(C)c3)n[nH]2)cc1C#N [Example 32, 3-(2-methyl-4-pyridyl)-5-[3-cyano-4-{(2-methoxyethoxy)ethoxy}phenyl]-1,2,4-triazole]
11 | 37.9 | COc1ccc(-c2nc(-c3ccnc(C)c3)n[nH]2)cc1C#N [Example 26, 3-(2-methyl-4-pyridyl)-5-(3-cyano-4-methoxyphenyl)-1,2,4-triazole]
12 | 38.3 | COc1ccc(COc2ccc(-c3nc(-c4ccnc(C)c4)n[nH]3)cc2C#N)cc1 [Example 24, 3-(2-methyl-4-pyridyl)-5-[3-cyano-4-(4-methoxybenzyloxy)phenyl]-1,2,4-triazole]
13 | 36.1 | CC(C)Oc1ccc(-c2nc(-c3ccncc3)n[nH]2)cc1[N+](=O)[O-] [Example 16, 5-(4-isopropoxy-3-nitrophenyl)-3-(4-pyridyl)-1,2,4-triazole]
14 | 41.6 | Cc1cc(-c2nc(-c3ccc(OCC4CCCCO4)c([N+](=O)[O-])c3)n[nH]2)ccn1 (centres unmarked) [Example 11, 5-(2-methyl-4-pyridyl)-3-[3-nitro-4-(2-tetrahydropyranylmethyl)oxyphenyl]-1,2,4-triazole]
15 | 41.1 | Cc1cc(-c2nc(-c3ccnc(C#N)c3)n[nH]2)ccn1 [Example 23, 3-(2-cyano-4-pyridyl)-5-(2-methyl-4-pyridyl)-1,2,4-triazole]
16 | 52.9 | COc1ccc(-c2nc(-c3ccnc(C)c3)n[nH]2)cc1[N+](=O)[O-] [Example 21, 3-(2-methyl-4-pyridyl)-5-(3-nitro-4-methoxyphenyl)-1,2,4-triazole]
17 | 40.6 | Cc1cc(-c2nc(-c3ccc(Sc4ccccc4)c([N+](=O)[O-])c3)n[nH]2)ccn1 [Example 6, 5-(2-methyl-4-pyridyl)-3-(3-nitro-4-phenylthiophenyl)-1,2,4-triazole]
18 | 40.0 | COCCOCOc1ccc(-c2n[nH]c(-c3ccnc(C)c3)n2)cc1C#N [Example 3, 3-[3-cyano-4-{(2-methoxy)ethoxymethyl}oxyphenyl]-5-(2-methyl-4-pyridyl)-1,2,4-triazole]

Further lines, the compound ahead of its results:

Row | SMILES | Reduction rate of serum uric acid level [%]
19 | Cc1cc(-c2n[nH]c(-c3ccc(OCCOCCOCCCl)c(C#N)c3)n2)ccn1 [Example 29, 3-(2-methyl-4-pyridyl)-5-[3-cyano-4-{(<2-chloroethoxy>ethoxy)ethoxy}phenyl]-1,2,4-triazole] | 40.7
20 | Cc1cc(-c2nc(-c3ccc(OCOCc4ccccc4)c([N+](=O)[O-])c3)n[nH]2)ccn1 [Example 10, 3-(4-benzyloxymethyloxy-3-nitrophenyl)-5-(2-methyl-4-pyridyl)-1,2,4-triazole] | 41.6
21 | Cc1cc(-c2nc(-c3ccnc(Cl)c3)n[nH]2)ccn1 [Example 27, 3-(2-chloro-4-pyridyl)-5-(2-methyl-4-pyridyl)-1,2,4-triazole] | 32.9
22 | Cc1cc(-c2nc(-c3ccc(OCC(C)C)c([N+](=O)[O-])c3)n[nH]2)ccn1 [Example 1, 3-(4-isobutoxy-3-nitrophenyl)-5-(2-methyl-4-pyridyl)-1,2,4-triazole] | 66.5
23 | Cc1cc(-c2nc(-c3ccc(SCC(C)C)c([N+](=O)[O-])c3)n[nH]2)ccn1 [Example 7, 3-(4-isobutylthio-3-nitrophenyl)-5-(2-methyl-4-pyridyl)-1,2,4-triazole] | 42.7
24 | Cc1cc(-c2nc(-c3ccc(OCC(C)C)c([N+](=O)[O-])c3)nn2COC(=O)C(C)(C)C)ccn1 [Example 14, 3-(4-isobutoxy-3-nitrophenyl)-5-(2-methyl-4-pyridyl)-N-pivaloyloxymethyl-1,2,4-triazole] | 43.0
25 | N#Cc1cc(-c2n[nH]c(-c3cc[n+]([O-])cc3)n2)ccn1 [Example 35, 3-(2-cyano-4-pyridyl)-5-(1-oxy-4-pyridyl)-1,2,4-triazole] | 46.8
26 | CCCCOc1ccc(-c2n[nH]c(-c3ccncc3)n2)cc1[N+](=O)[O-] [Example 15, 3-(4-butoxy-3-nitrophenyl)-5-(4-pyridyl)-1,2,4-triazole] | 41.2
27 | CC(C)COc1ccc(-c2n[nH]c(-c3ccncc3)n2)cc1[N+](=O)[O-] [Example 13, 3-(4-isobutoxy-3-nitrophenyl)-5-(4-pyridyl)-1,2,4-triazole] | 46.8
28 | Cc1cc(-c2n[nH]c(-c3ccc(OCC(C)C)c(C#N)c3)n2)ccn1 [Example 20, 3-(2-methyl-4-pyridyl)-5-(3-cyano-4-isobutoxyphenyl)-1,2,4-triazole] | 67.5
29 | COCCOCCOCCOc1ccc(-c2nc(-c3ccnc(C)c3)n[nH]2)cc1C#N [Example 33, 3-(2-methyl-4-pyridyl)-5-[3-cyano-4-{(<2-methoxyethoxy>ethoxy)ethoxy}phenyl]-1,2,4-triazole] | 44.7
30 | Cc1cc(-c2n[nH]c(-c3ccc(OCCC(C)C)c(C#N)c3)n2)ccn1 [Example 25, 3-(2-methyl-4-pyridyl)-5-(3-cyano-4-isopentyloxyphenyl)-1,2,4-triazole] | 47.2
31 | CC(C)COc1ccc(-c2n[nH]c(-c3ccncc3)n2)cc1C#N [Example 2, 3-(3-cyano-4-isobutoxyphenyl)-5-(4-pyridyl)-1,2,4-triazole] | 62.3

Same assay, conditions: male Wistar rats, 1 mg/5 ml/kg in 0.5% methylcellulose, blood collected 6 hours after administration

Row | SMILES | Reduction rate of serum uric acid level [%]
32 | CC(C)COc1ccc(-c2n[nH]c(-c3ccnc(Cl)c3)n2)cc1[N+](=O)[O-] [Example 17, 5-(2-chloro-4-pyridyl)-3-(4-isobutoxy-3-nitrophenyl)-1,2,4-triazole] | 40.6
